Target: Myeloid Cell Leukemia 1(Mcl-1) (Homo sapiens (Human), UniProt Q07820)
Experiment: Terbium labeled Mcl-1 HTRF binding assay with Cy5-labeled BIM BH3 peptide
Protocol: Terbium labeled Myeloid Cell Leukemia 1(Mcl-1) homogeneous time-resolved fluorescence (HTRF) binding assay utilizing the BIM BH3 peptide (H2N-(C/Cy5Mal) WIAQELRRIGDEFN-OH) as the binding partner for Mcl-1.
This assay evaluated inhibition of the BH3 domain: Mcl-1 interaction by measuring the displacement of Cy5-labeled BIM BH3 peptide (H2N—(C/Cy5Mal) WIAQELRRIGDEFN-OH) in the HTRF assay format.
The following assay and stock buffers were prepared for use in the assay: (a) Stock buffer: 10 mM Tris-HCl, pH=7.5+150 mM NaCl, filtered, sterilized, and stored at 4° C.; and (b) 1× assay buffer, where the following ingredients were added fresh to stock buffer: 2 mM dithiothreitol (DTT), 0.0025% Tween-20, 0.1 mg/mL bovine serum albumin (BSA). The 1×Tb-Mcl-1+Cy5 Bim peptide solution was prepared by diluting the protein stock solution using the 1× assay buffer (b) to 25 pM Tb-Mcl-1 and 8 nM Cy5 Bim peptide.
Using the Acoustic ECHO, 100 nL of 100× test compound(s) were dispensed into individual wells of a white 384-well Perkin Elmer Proxiplate, for a final compound concentration of lx and final DMSO concentration of 1%. Inhibitor control and neutral control (NC, 100 nL of 100% DMSO) were stamped into columns 23 and 24 of assay plate. Into each well of the plate was then dispensed 10 μL of the 1×Tb-Mcl-1+Cy5 Bim peptide solution. The plate was centrifuged with a cover plate at 1000 rpm for 1 minute, then incubated for 60 minutes at room temperature with plates covered.
The TR-FRET signal was read on an BMG PHERAStar FSX MicroPlate Reader at room temperature using the HTRF optic module (HTRF: excitation: 337 nm, light source: laser, emission A: 665 nm, emission B: 620 nm, integration start: 60 μs, integration time: […]).
The BMG PHERAStar FSX MicroPlate Reader was used to measure fluorescence intensity at two emission wavelengths—665 nm and 620 nm—and report relative fluorescence units (RFU) for both emissions, as well as a ratio of the emissions (665 nm/620 nm)*10,000. The RFU values were normalized to percent inhibition as follows:
% inhibition=((NC−IC)−(compound−IC))/(NC−IC))*100
where IC (inhibitor control, low signal)=mean signal of 1×Tb-MCl-1+Cy5 Bim peptide+inhibitor control or 100% inhibition of Mcl-1; NC (neutral control, high signal)=mean signal 1×Tb-MCl-1+Cy5 Bim peptide with DMSO only or 0% inhibition An 11-point dose response curve was generated to determine IC50 values (using GenData) based on the following equation:
Y=Bottom+(Top−Bottom)/(1+10^((IogIC50−X)*HillSlope))
where Y=% inhibition in the presence of X inhibitor concentration; Top=100% inhibition derived from the IC (mean signal of Mcl-1+inhibitor control); Bottom=0% inhibition derived from the NC (mean signal of Mcl-1+DMSO); Hillslope=Hill coefficient; and IC50=concentration of compound with 50% inhibition in relation to top/neutral control (NC).
In this assay [L]=8 nM and Kd=10 nM

[1] = first table, [L]=8 nM, Kd=10 nM, before recalibration of the equipment
[2] = obtained after recalibration of the equipment, averaged values over several runs

Myeloid Cell Leukemia 1(Mcl-1), sequence (Q07820 whole entry): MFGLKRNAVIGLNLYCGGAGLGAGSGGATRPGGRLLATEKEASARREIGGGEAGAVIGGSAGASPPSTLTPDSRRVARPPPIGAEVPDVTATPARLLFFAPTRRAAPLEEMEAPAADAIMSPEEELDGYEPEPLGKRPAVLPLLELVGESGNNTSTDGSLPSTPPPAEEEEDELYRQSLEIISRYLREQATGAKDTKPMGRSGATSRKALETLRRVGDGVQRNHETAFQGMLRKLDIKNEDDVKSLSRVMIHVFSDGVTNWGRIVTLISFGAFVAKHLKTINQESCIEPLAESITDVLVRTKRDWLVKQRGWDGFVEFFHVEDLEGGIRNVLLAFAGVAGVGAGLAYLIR

Structure (SMILES) | Ki [1] [nM] | Ki [2] [nM]
C[C@@H]1[C@@H](C)C/C=C/C(CO)N2CC[C@H]2CN2C[C@@]3(CCCc4cc(Cl)ccc43)COc3ccc(cc32)C(=O)NS1(=O)=O (single isomer, unassigned) [Compound 10] | 2.65 | 
C[C@@H]1[C@@H](C)C/C=C(\F)[C@H](COc2ccccn2)N2CC[C@@H]2CN2C[C@@]3(CCCc4cc(Cl)ccc43)COc3ccc(cc32)C(=O)NS1(=O)=O [Compound 12] |  | 2.15
C[C@@H]1[C@@H](C)C/C=C(\F)[C@H](COCC(=O)N2CC(F)(F)C2)N2CC[C@H]2CN2C[C@@]3(CCCc4cc(Cl)ccc43)COc3ccc(cc32)C(=O)NS1(=O)=O [Compound 19] | 0.43 | 0.36
CC(C)COC[C@H]1/C(F)=C/C[C@H](C)[C@@H](C)S(=O)(=O)NC(=O)c2ccc3c(c2)N(C[C@@H]2CCN21)C[C@@]1(CCCc2cc(Cl)ccc21)CO3 [Compound 15] | 3.64 | 2.33
C[C@@H]1[C@@H](C)C/C=C(\F)[C@H](COCCC2CCOCC2)N2CC[C@H]2CN2C[C@@]3(CCCc4cc(Cl)ccc43)COc3ccc(cc32)C(=O)NS1(=O)=O [Compound 23] | 1.52 | 0.82
Cc1nc(COC[C@H]2/C(F)=C/C[C@H](C)[C@@H](C)S(=O)(=O)NC(=O)c3ccc4c(c3)N(C[C@@H]3CCN32)C[C@@]2(CCCc3cc(Cl)ccc32)CO4)no1 [Compound 24] | 0.63 | 0.47
COC[C@H]1/C=C/C[C@@H](C)[C@@H](C)S(=O)(=O)NC(=O)c2ccc3c(c2)N(C[C@@H]2CCN21)C[C@@]1(CCCc2cc(Cl)ccc21)CO3 [Compound 4] | 1.98 | 3.15
C[C@@H]1[C@@H](C)C/C=C(\F)[C@H](CF)N2CC[C@H]2CN2C[C@@]3(CCCc4cc(Cl)ccc43)COc3ccc(cc32)C(=O)NS1(=O)=O [Compound 31] |  | 0.86
COC[C@H]1/C(F)=C/C[C@H](C)[C@@H](C)S(=O)(=O)NC(=O)c2ccc3c(c2)N(C[C@@H]2CCN21)C[C@@]1(CCCc2cc(Cl)ccc21)CO3 [Compound 13] | 0.49 | 0.51
C[C@@H]1[C@@H](C)C/C=C(\F)[C@H](COCC2CCC2)N2CC[C@H]2CN2C[C@@]3(CCCc4cc(Cl)ccc43)COc3ccc(cc32)C(=O)NS1(=O)=O [Compound 26] | 4.72 | 2.87
COCCCOC[C@H]1/C(F)=C/C[C@H](C)[C@@H](C)S(=O)(=O)NC(=O)c2ccc3c(c2)N(C[C@@H]2CCN21)C[C@@]1(CCCc2cc(Cl)ccc21)CO3 [Compound 22] | 1.29 | 0.69
C[C@@H]1[C@@H](C)C/C=C(\F)[C@H](CO)N2CC[C@H]2CN2C[C@@]3(CCCc4cc(Cl)ccc43)COc3ccc(cc32)C(=O)NS1(=O)=O [Compound 9] | 0.22 | 0.23
COC[C@@H]1/C=C/C[C@@H](C)[C@@H](C)S(=O)(=O)NC(=O)c2ccc3c(c2)N(C[C@@H]2CCN21)C[C@@]1(CCCc2cc(Cl)ccc21)CO3 [Compound 7] | 0.83 | 0.61
CCOC[C@H]1/C(F)=C/C[C@H](C)[C@@H](C)S(=O)(=O)NC(=O)c2ccc3c(c2)N(C[C@@H]2CCN21)C[C@@]1(CCCc2cc(Cl)ccc21)CO3 [Compound 16] | 0.83 | 
C[C@@H]1[C@@H](C)C/C=C(\F)[C@H](COCC(=O)N2CCOCC2)N2CC[C@H]2CN2C[C@@]3(CCCc4cc(Cl)ccc43)COc3ccc(cc32)C(=O)NS1(=O)=O [Compound 18] | 0.24 | 0.24
C[C@@H]1[C@@H](C)C/C=C(\F)[C@H](COCC(=O)O)N2CC[C@H]2CN2C[C@@]3(CCCc4cc(Cl)ccc43)COc3ccc(cc32)C(=O)NS1(=O)=O [Compound 17] | 0.13 | 0.17
C[C@@H]1[C@@H](C)C/C=C(\F)[C@H](COc2ccccn2)N2CC[C@H]2CN2C[C@@]3(CCCc4cc(Cl)ccc43)COc3ccc(cc32)C(=O)NS1(=O)=O [Compound 11] | 3.97 | 2.13
C[C@@H]1[C@@H](C)C/C=C(\F)[C@H](COCCCN2CCOCC2)N2CC[C@H]2CN2C[C@@]3(CCCc4cc(Cl)ccc43)COc3ccc(cc32)C(=O)NS1(=O)=O [Compound 25] | 0.2 | 0.21
COCC1/C=C/C[C@H](C)[C@@H](C)S(=O)(=O)NC(=O)c2ccc3c(c2)N(C[C@@H]2CCCN12)C[C@@]1(CCCc2cc(Cl)ccc21)CO3 (single isomer, unassigned) [Compound 8] | 2.04 | 2.64
